From article PMC7996170, “Novel Method for Quantifying AhR-Ligand Binding Affinities Using Microscale Thermophoresis” (Biosensors, 2021)
Read-outs that look alike come from different tables or passages of the source.

Columns and labels:
[1] = cited from earlier work
[2] = target: T1, recombinant AhR-ARNT complex (Homo sapiens, UniProt P35869); test: Competition radioligand binding assay ([3H]TCDD displacement) on purified recombinant AhR-ARNT; conditions: for competition with [3H]TCDD (in words): 4 nM [3H]TCDD, increasing concentrations of unlabeled competitor
T1 construct: encompassing the bHLH-PAS A-PAS B domains (amino acid residues 23 to 475); His6 (N, cleaved yes); FleB (Yersinia flagellin subunit, residues 54 to 332, UniProt A1JSQ5) expression tag followed by HRV 3C site (N, cleaved yes); made in house; host or cells: E. coli BL21(DE3)
T1 sequence (P35869 23-475): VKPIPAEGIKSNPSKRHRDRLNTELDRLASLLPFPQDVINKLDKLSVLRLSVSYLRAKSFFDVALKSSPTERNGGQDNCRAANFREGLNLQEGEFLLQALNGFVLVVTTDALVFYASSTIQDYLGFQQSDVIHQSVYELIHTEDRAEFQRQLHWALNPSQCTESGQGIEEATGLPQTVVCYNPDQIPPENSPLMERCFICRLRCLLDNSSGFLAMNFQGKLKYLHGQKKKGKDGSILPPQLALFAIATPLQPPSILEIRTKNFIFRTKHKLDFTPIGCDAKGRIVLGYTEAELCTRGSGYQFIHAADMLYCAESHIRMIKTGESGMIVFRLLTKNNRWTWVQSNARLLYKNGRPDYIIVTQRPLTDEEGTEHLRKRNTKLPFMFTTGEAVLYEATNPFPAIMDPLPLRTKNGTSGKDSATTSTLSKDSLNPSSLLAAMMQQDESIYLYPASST
T1 sequence (P53762 with tags, fused parts or gaps C256S/DEL274-297/DEL351-358 partner): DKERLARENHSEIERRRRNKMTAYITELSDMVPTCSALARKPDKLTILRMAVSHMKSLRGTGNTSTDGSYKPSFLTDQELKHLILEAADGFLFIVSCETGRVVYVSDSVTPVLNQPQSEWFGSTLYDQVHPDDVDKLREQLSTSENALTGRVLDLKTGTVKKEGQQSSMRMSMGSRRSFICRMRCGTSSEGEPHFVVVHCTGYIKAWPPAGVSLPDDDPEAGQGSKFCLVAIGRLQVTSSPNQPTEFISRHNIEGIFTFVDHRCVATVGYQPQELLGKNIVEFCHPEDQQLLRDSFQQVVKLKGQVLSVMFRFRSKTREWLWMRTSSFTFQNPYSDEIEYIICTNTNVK
Protocol: Radioligand binding assays were performed as previously established. Briefly, for saturation experiments, 0.5 mg/mL of purified AhR-ARNT or ARNT protein was diluted in MDEG buffer (25 mM MOPS, 1 mM DTT, 1 mM EDTA, 10% glycerol, 20 mM molybdate, pH 7.5) and incubated with increasing concentrations of radioactively labeled [^3H]TCDD tracer. Reactions were supplemented with liver lysate of AhR-deficient mice (AhR^-/-, C57BL/6 background) to a final protein concentration of 5 mg/mL to reduce unspecific binding and adsorption of the tracer to plastic surfaces. Liver lysates were prepared in MDEG buffer by homogenization using the gentleMacs Dissociator (Miltenyi Biotec), followed by ultracentrifugation at 100,000× g and 4 °C for 1 h. Cytosolic fractions were collected, protein concentration determined by Bradford reaction (Protein Assay Kit, Pierce), and further diluted to a final protein concentration of 5 mg/mL in MDEG buffer. […] Subsequently, 30 μL of a Norit A charcoal suspension (100 mg/mL equilibrated in MDEG buffer) was added into each 200 µL of the reaction mixture. Samples were kept on ice for 15 min and centrifuged for another 15 min at 25,000× g and 4 °C. Following this, 150 μL of the supernatant was carefully transferred and radioactivity was measured in a liquid scintillation counter (Tri-Carb 3110TR, PerkinElmer). All samples were measured in triplicate. For competition assays, a constant concentration of [^3H]TCDD (4 nM final) was used, to which a serial dilution of unlabeled competitor molecule dissolved in DMSO was added in excess. All subsequent steps were carried out as described above. The specific binding was defined as the difference of radioactivity between the reactions supplemented with the recombinant protein and AhR-deficient (Ahr^-/-) mouse lysates. Analysis of the data and calculation of the binding constants Kd and receptor density Bmax were performed with GraphPad Prism 7 using a nonlinear regression fitting a saturation binding isotherm. For competition studies, the IC50 values were obtained by fitting a one-site competitive binding equation to the experimental data. Ki values were derived from IC50 using the Cheng–Prusoff equation [19].

[3] = target: T1, recombinant AhR-ARNT complex; test: Label-free microscale thermophoresis (MST) ligand binding
mARNT = target: T2, mARNT (Mus musculus, UniProt P53762, C256S/DEL274-297/DEL351-358); test: Label-free MST on mARNT alone; assay type: binding; conditions: Figure S3
T2 construct: Mouse ARNT (residues 85–465) was expressed as N-terminal His6-fusion protein; His6 (N); made in house; host or cells: E. coli BL21(DE3)
T2 sequence (P53762 with tags, fused parts or gaps C256S/DEL274-297/DEL351-358): as the sequence (P53762 with tags, fused parts or gaps C256S/DEL274-297/DEL351-358 partner) above
Protocol: Microscale thermophoresis (MST) experiments were performed according to the manufacturer’s instructions (NanoTemper Technologies GmbH) using a Monolith NT.LabelFree. In brief, 250 nM of purified AhR-ARNT proteins were diluted in assay buffer (20 mM HEPES pH 8.0, 200 mM NaCl, 5% glycerol, 5 mM DTT, and 0.1% Pluronic F-127) and incubated for 5 min, in the presence of a serial dilution of the different ligands (ligand solubilized in DMSO at a final constant concentration of 2%). After incubation, samples were filled into NT.LabelFree Zero Background MST Premium coated capillaries (NanoTemper Technologies GmbH) and measurements were taken at a constant temperature of 22 °C. MST traces were collected with an LED excitation power of 20% and an MST laser power of 20% and 40%. The MO.Control Analysis software (NanoTemper) was used to analyze the interaction affinity and the dissociation constant (Kd) for each ligand using the Kd fit model. In short, changes in the thermophoretic movement were depicted as changes in the normalized fluorescence ratio before and after heating (ΔFnorm [‰]) and plotted as a function of the ligand concentration. The resulting binding curve is fitted by the software using the best fitting method to derive binding constants and thus the Kd.

endogenous hAhR = target: endogenous hAhR; set-up: method as in PMID 2848187; conditions: endogenous hAhR in hepatocyte cell lysates; read-out: equilibrium dissociation constant (Kd); cited from earlier work
murine AhR = conditions: higher affinity of murine AhR than human AhR; cited from earlier work
[4] = target: T3, purified AhR-ARNT complex (recombinant hAhR23–475 with mARNT85–465) (Homo sapiens, UniProt P35869); test: Radioligand saturation binding assay with [3H]TCDD on purified recombinant AhR-ARNT; conditions: 4 °C, 24 h
T3 construct: encompassing the bHLH-PAS A-PAS B domains (amino acid residues 23 to 475); His6 (N, cleaved yes); FleB (Yersinia flagellin subunit, residues 54 to 332, UniProt A1JSQ5) expression tag followed by HRV 3C site (N, cleaved yes); made in house; host or cells: E. coli BL21(DE3)
T3 sequence (P35869 23-475): as the sequence (P35869 23-475) above
T3 sequence (P53762 with tags, fused parts or gaps C256S/DEL274-297/DEL351-358 partner): as the sequence (P53762 with tags, fused parts or gaps C256S/DEL274-297/DEL351-358 partner) above
Protocol: Radioligand binding assays were performed as previously established. Briefly, for saturation experiments, 0.5 mg/mL of purified AhR-ARNT or ARNT protein was diluted in MDEG buffer (25 mM MOPS, 1 mM DTT, 1 mM EDTA, 10% glycerol, 20 mM molybdate, pH 7.5) and incubated with increasing concentrations of radioactively labeled [^3H]TCDD tracer. Reactions were supplemented with liver lysate of AhR-deficient mice (AhR^-/-, C57BL/6 background) to a final protein concentration of 5 mg/mL to reduce unspecific binding and adsorption of the tracer to plastic surfaces. Liver lysates were prepared in MDEG buffer by homogenization using the gentleMacs Dissociator (Miltenyi Biotec), followed by ultracentrifugation at 100,000× g and 4 °C for 1 h. Cytosolic fractions were collected, protein concentration determined by Bradford reaction (Protein Assay Kit, Pierce), and further diluted to a final protein concentration of 5 mg/mL in MDEG buffer. […] Following this, 150 μL of the supernatant was carefully transferred and radioactivity was measured in a liquid scintillation counter (Tri-Carb 3110TR, PerkinElmer). All samples were measured in triplicate. […] The specific binding was defined as the difference of radioactivity between the reactions supplemented with the recombinant protein and AhR-deficient (Ahr^-/-) mouse lysates. […]

O=Cc1c2[nH]c3ccccc3c2cc2[nH]c3ccccc3c12 [FICZ, 6-Formylindolo [3,2-b] carbazole]
stability in aqueous solution (in words) ([1]; tryptophan group): high instability | competition with [3H]TCDD (in words) ([2]; 24 h): failed to see competition

Clc1cc2c(cc1Cl)Oc1cc(Cl)c(Cl)cc1O2 [TCDD, 2,3,7,8-Tetrachlorodibenzo-p-dioxin]
Kd [3]: 139 ± 99 nM | ligand-induced differences in MST traces with mARNT alone (in words) (mARNT): not when mARNT was used alone | solubility in water (in words) [1]: insolubility in water | Kd (endogenous hAhR): 2.7 to 4.2 nM | competition with [3H]TCDD (in words) ([2]; 24 h): only an initial competition | displacement of [3H]TCDD from AhR-ARNT by unlabeled competitor (in words) ([2]; increasing protein, constant [3H]TCDD, 48 h, Figure S2): displacement by unlabeled dioxin detectable | binding affinity of murine AhR relative to human AhR (murine AhR): ~10 fold | maximal binding capacity (Bmax) ([4]; [3H]TCDD saturation binding): 60.3 ± 17.3 pmoles/mg protein | Kd ([4]; [3H]TCDD tracer, 0.5 mg/mL protein, AhR-/- mouse liver lysate added): 39 ± 20 nM

Cc1ccccc1N=Nc1ccc(NC(=O)c2ccnn2C)c(C)c1 [CH-223191, 2-Methyl-2H-pyrazole-3-carboxylic acid (2-methyl-4-o-tolylazo-phenyl)-amide]
Kd ([3]; 250 nM AhR-ARNT, 2% DMSO, 22 °C, label-free, read-out: Kd (MST)): 496 ± 82 nM | Ki ([2]; displacement of 4 nM [3H]TCDD, 24 h, 4 °C, read-out: Ki (from IC50 by Cheng–Prusoff)): 12200 nM

Oc1cccc2nc3ccccc3nc12 [1-HP, 1-Hydroxyphenazine]
Kd [3]: 943 ± 176 nM | Ki [2]: 9200 nM
